# Read-outs that look alike come from different tables or passages of the source.
# Legend:
# [1] = test system: liver damage in mice caused by CCl4; type: in vivo, Kunmin mice; conditions: serum, CCl4 model, 0.2 mmol oral twice, 24 hours after second administration
# Procedure: Kunmin mice (20 g) were grouped randomly (8/group). 0.2 mmol of a compound to be tested was orally administered; after 1 hour post-dosing, a 0.1% peanut oil solution of CCl4 was subcutaneously injected (10 mL/kg), to prepare a liver damage model; the normal saline was injected as a normal control group. After modeling for 12 hours, 0.2 mmol of the compound to be tested was orally administrated again. After 24 hours from the second administration, blood samples were collected to take serum specimen so as to determine ALT, AST.
# [2] = test system: liver damage in mice caused by D-aminogalactose; type: in vivo, Kunmin mice; conditions: serum, D-aminogalactose 750 mg/kg model, 0.2 mmol oral twice, 24 hours after second administration
# Procedure: Kunmin mice (20 g) were grouped randomly (8/group). 0.2 mmol of a compound to be tested was orally administered; after 2 hours post-dosing, D-aminogalactose was intraperitoneally injected at a dose of 750 mg/kg to prepare a liver damage model, and the normal saline was subcutaneously injected as a normal control group. After modeling for 12 hours, 0.2 mmol of the compound to be tested was orally administrated again. After 24 hours from the second administration, blood samples were collected to take serum specimen so as to determine ALT, AST.
# HBV = experiment: microbe, parasite or virus in culture; type: cell-based
# Procedure: At day 10 post-dosing, 100 μl supernate was taken and the content of HBV DNA was measured by the method of Quantitative PCR to calculate IC50 value.
# DHBV = experiment: animal or person; type: in vivo, sheldrakes; conditions: Duck hepatitis B virus, po, 336 h; for inhibition in vivo at 0.5 mg/kg: 0.5 mg/kg intragastric once a day for 14 days; for inhibition in vivo at 10 mg/kg: 10 mg/kg intragastric once a day for 14 days
# Procedure: The sheldrakes infected by vertical transmission and being positive in DHBV DNA detection were grouped randomly, 5/group. Water and different doses of the compound to be tested were intragastrically administrated, respectively, once a day, for 14 days. Venous blood samples were collected pre-dosing, at day 14 of dosing and at day 7 after drug withdrawal, the serum DHBV DNA content was measured using external standard TaqMan real-time fluorescence PCR method, and the inhibition ratio was calculated, as compared to the solvent group.
# in vitro = type: cell-based; conditions: human; Hep G 2.2.15 cells, MTT, day 3 post-dosing
# Procedure: Hep G 2.2.15 cells were inoculated in a 96-well plate (with cell number being 5.5×10^4) to continually cultivate for 3 days, new culture solutions containing different concentrations of drugs were added, and 3 wells were provided in parallel; at day 3 post-dosing, MTT was added until 7.5 mg/ml, and continued to cultivate for 2 hours, the supernate was discarded, isopropanol containing 10% […] was added, 120 μl/well, and 0.4 μl/well was further added.
# [3] = serum DHBV DNA, read-out: Inhibition ratio (%) Day 14 of dosing
# [4] = serum DHBV DNA, read-out: Inhibition ratio (%) day 7 after drug withdrawal
# [5] = Hepatitis B virus, HepG2.2.15, 240 h, Hep G 2.2.15 cells, HBV DNA in supernate at day 10 post-dosing, read-out: IC50
# [6] = Hepatitis B virus, HepG2.2.15, 240 h
# [7] = read-out: Inhibition ratio (%) Day 14 of dosing
# [8] = read-out: Inhibition ratio (%) day 7 after drug withdrawal
SMILES,ALT [1],AST [1],ALT [2],AST [2],CC50 at 3 days (in vitro),IC50 (HBV; [6]),also measured
"Nc1ncnc2c1ncn2CCOCP(=O)(Oc1ccccc1)Oc1ccccc1 [i-1, 9-[[bis-(phenoxyl)-phosphonyl-methoxyl]-ethyl]-adenine, reference compound]",2930 U/L,2943 U/L,1227 U/L,1456 U/L,–,–,"IC50 (HBV; Hep G 2.2.15 cells, HBV DNA in supernate at day 10 post-dosing, read-out: IC50): 11.3 µM"
C=C1[C@H](CO[P@](=O)(N[C@@H](C)C(=O)OC(C)C)Oc2ccc3c(c2)OCO3)[C@@H](O)C[C@@H]1n1cnc2c(=O)[nH]c(N)nc21 [Compound I38-a],410 U/L,289 U/L,177 U/L,275 U/L,–,–,inhibition in vivo at 0.5 mg/kg (DHBV; [3]): 76.2%; inhibition in vivo at 0.5 mg/kg (DHBV; [4]): 31.4%; CC50 (in vitro): 139 µM; IC50 (HBV; [5]): 0.001 µM
"COc1nc(N)nc2c1ncn2COCCOP(=O)(Oc1ccc2c(c1)OCO2)Oc1ccc2c(c1)OCO2 [Compound I13, 2-amino-6-methoxyl-9-[[[bis-((benzo[1,3]dioxolan-5-yl)-oxyl)-phosphoryloxyl]-ethoxyl]-methyl]-purine]",–,–,–,–,> 200 µM,0.29 µM,–
"Nc1ncnc2c1ncn2CCOCP(=O)(Oc1ccc2c(c1)OCO2)Oc1ccc2c(c1)OCO2 [Compound I2, 9-[[[bis-((benzo[1,3]dioxolan-5-yl)-oxyl)-phosphonyl]-methoxyl]-ethyl]-adenine]",435 U/L,764 U/L,514 U/L,560 U/L,> 200 µM,0.47 µM,–
"COc1ccc(Sc2nc(N)nc3c2ncn3CCOCP(=O)(N[C@H](C)C(=O)OC(C)C)Oc2ccc3c(c2)OCO3)cc1 (stereo partly shown) [Compound I26, 2-amino-6-(4-methoxylphenyl)thio-9-[[[(((benzo[1,3]dioxolan-5-yl)-oxyl)-1-isopropyloxylcarbonylethylamino)-phosphonyl]-methoxyl]-ethyl]-purine]",521 U/L,363 U/L,212 U/L,586 U/L,> 200 µM,0.039 µM,inhibition in vivo at 25 mg/kg (DHBV; [7]): 93.5%; inhibition in vivo at 25 mg/kg (DHBV; [8]): 11.5%
"Nc1nc2c(ncn2COCCOP(=O)(Oc2cccc3c2OCO3)Oc2cccc3c2OCO3)c(=O)[nH]1 [Compound I11, 9-[[[bis-((benzo[1,3]dioxolan-4-yl)-oxyl)-phosphoryloxyl]-ethoxyl]-methyl]-guanine]",–,–,–,–,> 200 µM,1.66 µM,–
COc1nc(N)nc2c1ncn2COCCOP(=O)(N[C@H](C)C(=O)OC(C)C)Oc1ccc2c(c1)OCO2 (stereo partly shown) [Compound I29],307 U/L,561 U/L,301 U/L,510 U/L,–,–,inhibition in vivo at 10 mg/kg (DHBV; [3]): 90.8%; inhibition in vivo at 10 mg/kg (DHBV; [4]): 17.1%; CC50 (in vitro): > 200 µM; IC50 (HBV; [5]): 0.14 µM
"Nc1ncnc2c1ncn2CCOCP(=O)(Oc1cccc2c1OCO2)Oc1cccc2c1OCO2 [Compound I1, 9-[[[bis-((benzo[1,3]dioxolan-4-yl)-oxyl)-phosphonyl]-methoxyl]-ethyl]-adenine]",328 U/L,433 U/L,679 U/L,796 U/L,> 200 µM,8.05 µM,–
CC(C)OC(=O)[C@@H](C)NP(=O)(CO[C@H](C)Cn1cnc2c(N)ncnc21)Oc1cccc2c1OCO2 (stereo partly shown) [Compound I24],–,–,–,–,> 200 µM,4.6 µM,–
COC(=O)[C@@H](C)NP(=O)(CO[C@H](C)Cn1cnc2c(N)ncnc21)Oc1ccc2c(c1)OCO2 (stereo partly shown) [Compound I19],–,–,–,–,146 µM,0.008 µM,–
"Nc1nc2c(ncn2COCCOP(=O)(Oc2ccc3c(c2)OCO3)Oc2ccc3c(c2)OCO3)c(=O)[nH]1 [Compound I12, 9-[[[bis-((benzo[1,3]dioxolan-5-yl)-oxyl)-phosphoryloxyl]-ethoxyl]-methyl]-guanine]",–,–,–,–,> 200 µM,0.24 µM,–
"Nc1ccn([C@@H]2CS[C@H](CO)O2)c(=O)n1 [Lamivudine, lamivudine, reference compound]",–,–,–,–,–,–,inhibition in vivo at 20 mg/kg (DHBV; [7]): 76.1%; inhibition in vivo at 20 mg/kg (DHBV; [8]): 2.35%; IC50 (HBV; [5]): 0.075 µM
C=C1[C@H](CO[P@@](=O)(N[C@@H](C)C(=O)OC(C)C)Oc2ccc3c(c2)OCO3)[C@@H](O)C[C@@H]1n1cnc2c(=O)[nH]c(N)nc21 [Compound I38-b],162 U/L,387 U/L,217 U/L,493 U/L,–,–,inhibition in vivo at 0.5 mg/kg (DHBV; [3]): 96.4%; inhibition in vivo at 0.5 mg/kg (DHBV; [4]): 63.4%; CC50 (in vitro): > 200 µM; IC50 (HBV; [5]): 0.09 µM
"Nc1nc2c(ncn2COCCO)c(=O)[nH]1 [Acyclovir, acyclovir, reference compound]",–,–,–,–,–,–,inhibition in vivo at 20 mg/kg (DHBV; [7]): 12.5%; inhibition in vivo at 20 mg/kg (DHBV; [8]): 2.64%; IC50 (HBV; [5]): 25.6 µM
"Nc1ccn(C2CSC(COP(=O)(Oc3ccc4c(c3)OCO4)Oc3ccc4c(c3)OCO4)O2)c(=O)n1 (stereo not shown) [Compound I14, 5′-bis-[((benzo[1,3]dioxolan-5-yl)-oxyl)-phosphoryl]-2′,3′-dideoxy-3′-thia-cytidine]",–,–,–,–,> 200 µM,5.28 µM,–
CC(C)OC(=O)[C@H](NP(=O)(CO[C@H](C)Cn1cnc2c(N)ncnc21)Oc1ccc2c(c1)OCO2)C(C)C (stereo partly shown) [Compound I22],–,–,–,–,> 200 µM,0.17 µM,–
"Nc1ncnc2c1ncn2CCOCP(=O)(Oc1cccc2ccccc12)Oc1cccc2ccccc12 [i-2, 9-[[bis-(naphthoxy)-phosphonyl-methoxyl]-ethyl]-adenine, reference compound]",3482 U/L,3660 U/L,1374 U/L,1812 U/L,152 µM,1.92 µM,–
"C=C1[C@H](COP(=O)(Oc2ccc3c(c2)OCO3)Oc2ccc3c(c2)OCO3)[C@@H](O)C[C@@H]1n1cnc2c(=O)[nH]c(N)nc21 [Compound I15, 9-[(1S,3R,4S)-4-hydroxyl-3-(bis-(((benzo[1,3]dioxolan-5-yl)-oxyl)-phosphoryl)-oxymethyl)-2-methylenecyclopentyl]-guanine]",–,–,–,–,> 200 µM,0.12 µM,–
"Nc1ncnc2c1ncn2CCOCP(=O)(Oc1cccc2c1OCCO2)Oc1cccc2c1OCCO2 [Compound I3, 9-[[[bis-((benzo[1,4]dioxan-5-yl)-oxyl)-phosphonyl]-methoxyl]-ethyl]-adenine]",–,–,–,–,> 200 µM,6.07 µM,–
"COC(=O)C(C)NP(=O)(OCC1OC(n2ccc(N)nc2=O)CS1)Oc1ccccc1 (stereo not shown) [Cf1109, reference compound]",2048 U/L,3351 U/L,191 U/L,140 U/L,–,–,"inhibition in vivo at 20 mg/kg (DHBV; serum DHBV DNA, 20 mg/kg intragastric once a day for 14 days, read-out: Inhibition ratio (%) Day 14 of dosing): 68.8%; inhibition in vivo at 20 mg/kg (DHBV; serum DHBV DNA, 20 mg/kg intragastric once a day for 14 days, read-out: Inhibition ratio (%) day 7 after drug withdrawal): 5.38%; CC50 (in vitro): 82 µM; IC50 (HBV; [5]): 0.13 µM"
"C[C@H](Cn1cnc2c(N)ncnc21)OCP(=O)(Oc1ccc2c(c1)OCO2)Oc1ccc2c(c1)OCO2 [Compound I6, 9-[(R)-2-[[bis-((benzo[1,3]dioxolan-5-yl)-oxyl)-phosphonyl]-methoxyl]-propyl]-adenine]",–,–,–,–,> 200 µM,0.41 µM,–
"Nc1ncnc2c1ncn2CCOCP(=O)(Oc1ccc2c(c1)OCCO2)Oc1ccc2c(c1)OCCO2 [Compound I4, 9-[[[bis-((benzo[1,4]dioxan-6-yl)-oxyl)-phosphonyl]-methoxyl]-ethyl]-adenine]",–,–,–,–,> 200 µM,3.19 µM,–
